Tested on: Staphylococcus epidermidis biofilms
Assay: Sterilization of S. epidermidis biofilms, minimal exposure time at 22° C. (supravital dye, confirmed by culture)
Assay type: cell-based
Description: This example compares and contrasts the cidal effectiveness of compositions of the invention with other disinfectants and antibiotics against Staphylococcus epidermidis biofilms, which are frequently observed on the surface of C.A.P.D. peritoneal catheters even in the absence of peritonitis or exit site infections.
A strain of S. epidermidis with characteristic abundant slime production, and derived from a human source, is used to prepare the biofilms. The isolate is fully sensitive in the fluid phase to all commonly used antibiotics as assayed using routine test methods. Aliquots of the bacteria are frozen at -70° C. in 10% glycerol broth or propagated on 5% defibrinated horse blood agar. Standardized biofilms are formed on soda glass microscope slides or slides coated with Silastic® (the basic material of indwelling catheters; see Cecil's, cited above, on page 542), placed in Petri dishes containing 20 ml of tryptone soya broth (Oxoid Ltd., England), seeded with 10^4 cfu S. epidermidis and incubated for 18 hours at 37° C. Reproducible uniform and confluent S. epidermidis biofilms of minimal density are formed.
Antibiotic activity against S. epidermidis biofilms are determined using a supravital dye which acts as an electron acceptor in coupled oxidative systems in biofilm bacteria. The method allows the bacteria to be examined undisturbed within the biofilm matrix in situ. Briefly stated, the biofilms are exposed to antibiotic solutions and incubated at […] for varying periods of time. Positive (viable, 1% peptone water) and negative (sterilized, 4% formol-peptone) controls are included in all experiments. After a designated exposure at 22° C. for varying periods of time between 15 seconds to 6 hours, the biofilms are rinsed twice in sterile water and allowed to drain. They are then placed in a flat agar medium incorporating substantive dyes and incubated at 37° C. for 4 hours, then 24 hours. Viability is assessed visually by a change in dye color and confirmed after 24 hours by mechanically scraping and subsequently culturing the biofilms. Sterilization is indicated by the absence of color changes and confirmed by culture of both intact and mechanically fragmented biofilms. Inhibition of growth is indicated by a lack of color change after a 4-hour incubation and confirmed by a positive color change by 24 hours.

SMILES: CO[C@H]1/C=C/O[C@@]2(C)Oc3c(C)c(O)c4c(O)c(c(/C=N/N5CCN(C)CC5)c(O)c4c3C2=O)NC(=O)/C(C)=C\C=C\[C@H](C)[C@H](O)[C@@H](C)[C@@H](O)[C@@H](C)[C@H](OC(C)=O)[C@@H]1C [rifampin]
- Exposure Time (22° C.) for Film Sterilization (100 μg/ml): 6 h

SMILES: OO [Hydrogen Peroxide (3%), Hydrogen Peroxide]
- contact time relative to 50 ppm ClO2 to destroy the organisms in the biofilm (3% concentration, vs 50 ppm ClO2): 1200 times
- Exposure Time (22° C.) for Film Sterilization: 0.167 h

From patent US5622725A, “Wound disinfection and repair” (Alcide Corporation, priority 1996, dated 1997)
